Values of other authors in patent US9029598B2 (Colgate-Palmolive Company, priority 2009, dated 2015).

Conditions: room temperature, natural partial pressure (3.5×10^−4 atmosphere)

maximum concentration of carbon dioxide in water: 12 µM
Structure (SMILES): O=C=O [Carbon dioxide]
